{"source": "patent US9982249B2", "about": "“Xylose isomerases and their uses” (BP Corporation North America Inc., priority 2012, dated 2018)", "assay_in_all_cases": "Km and Vmax determination at pH 6 (XI activity assay coupled to sorbitol dehydrogenase, Hanes plot)", "type_in_all_cases": "biochemical", "conditions_in_all_cases": "xylose about 40-600 mM, about 35° C., lysate of S. cerevisiae CEN.PK2-1Ca expressing XI from p426PGK1", "key": {"[1]": {"system": "Prevotella xylose isomerase, clone 1754MI1_001, SEQ ID NO: 78", "protocol": "(§1) XI activity in cell lysates was determined using a method based on that of Kersters-Hilderson et al., 1986, Enzyme Microb. Technol. 9:145-148, in which enzymatic conversion of xylose to xylulose by the XI is coupled with the enzymatic conversion of the product (xylulose) to xylitol via the enzyme sorbitol dehydrogenase (SDH). SDH activity requires the oxidation of NADH to NAD^+. The rate of oxidation of NADH is directly proportional to the rate of SDH conversion of D-xylulose to D-xylitol and is measured by the decrease in absorbance at 340 nm One unit of enzyme activity as measured by this assay is a decrease of […] of NADH per minute under assay conditions. All reactions, solutions, plates, and spectrophotometer were equilibrated to about 35° C. prior to use. Assays were performed either on fresh lysates immediately after preparation or lysates that had been frozen at −20° C. immediately after preparation. Assays were performed using a BioTek Model: Synergy H1 Hybrid Reader spectrophotometer and 96-well plates (Corning, Model #Costar® #3598). All spectrophotometric readings were performed at 340 nm. […]\n(§2) The reaction buffer used for experiments at pH 7.5 was about 100 mM Tris-HCl (pH 7.5). […] For experiments where activity was also measured at pH 6, the buffer was changed to about 100 mM sodium phosphate, pH 6. […]\n(§3) Any sample dilutions were performed using the reaction buffer as diluent. […] Reactions were mixed and read immediately using kinetic assay mode for about 10 minutes. Volumetric activity (VA) units are in milli-absorbance (mA) units per minute per ml of lysate added to the reactions (mA/min/ml). […] If protein quantitation was performed, specific activities (SA) were calculated where the units for SA are (mole NADH^+/min/mg, or U/mg lysate protein). […]\n(§4) The Km and Vmax at pH 6 were determined for a subset of the XI clones, expressed on p426PGK1 vector in Saccharomyces cerevisiae CEN.PK2-1Ca (ATCC: MYA1108), using the XI activity assay described in the Materials and Methods and varying the concentrations of xylose from about 40-600 mM. […]"}, "[2]": {"system": "Firmicutes xylose isomerase, clone 1753MI4_001, SEQ ID NO: 38", "protocol": "as §1, §2, §3, §4"}, "[3]": {"system": "Prevotella xylose isomerase, clone 5586MI108_002, SEQ ID NO: 96", "protocol": "as §1, §2, §3, §4"}}}
{"smiles": "OC1OC[C@@H](O)[C@H](O)[C@H]1O", "note": "(stereo partly drawn) [xylose, D-xylose]", "values": [{"measurement": "Km", "setting": "[1]", "result": 35.2, "unit": "mM"}, {"measurement": "Km", "setting": "[2]", "result": 28.8, "unit": "mM"}, {"measurement": "Km", "setting": "[3]", "result": 33.7, "unit": "mM"}]}
